Experimental data as given in patent US20160287624A1, “Water-Soluble Vitamins to Increase Oral Absorption and Bioavailability” (NESTEC S.A., priority 2013, published 2016).

Experiments:
[1] = Stability of vitamin B12 in simulated gastric fluid (HPLC-UV); format: physicochemical; settings: 37° C.
Experimental: The pH of simulated gastric fluid was measured. […] The solutions were incubated at 37° C. in the water bath of a shaker operated at 50 rpm. After 2 hrs. of incubation, 1 mL solution was taken for HPLC analysis.
The pure vitamin B12 (F4) was also reconstituted in gastric fluid as an unformulated control. Both sample solutions were made to contain 20 μg/ml vitamin B12, wrapped with aluminum foil to avoid exposure to light, and incubated at 37° C. for two hours. The solutions were then stored in a freezer for 22 hrs. The frozen samples were thawed to room temp before HPLC-UV analysis.

[2] = rat, in vivo, po
Experimental: Rats (n=6 per group) were orally administered at a dose equivalent to 2 mg/70 kg person in a free form (unformulated control F4) or a formulation of Formula 1 (API:Stevia at 1:25 w/w), Formula 2 (API:Stevia at 1:50 w/w), or Formula 3 (API:Stevia at 1:125 w/w).
To answer the question whether the solubilizer enhanced the absorption of vitamin B12, the four formulations were assessed in a Sprague Dawley rat model at the vitamin B12 dose equivalent to 1 mg/70 kg person. Each group (formulation) had 6 rats (n=6). Each rat was orally gavaged and blood collected at 11 time points during a 12-hour period. The plasma samples were stored in a freezer prior to vitamin B12 analyses. Relative bioavailability was calculated by comparing the area under the time-concentration curves of formulated over the unformulated control.
Vitamin B12 in rat plasma over time after oral gavage with baseline normalized for all treatments were analyzed by a radioimmunoassay method. The vitamin B12 in rat plasma over a 12-hr period at 15, 30, 45, 60, 90 min, and 2, 2.5, 4, 6, 8, and 12 h after oral gavage at a dose equivalent to 2 mg/70 kg person in a free form (unformulated control) or a formulated form of Formula 1 (vitamin B12:stevia at 1:25 w/w), Formula 2 (vitamin B12:stevia at 1:50 w/w), or Formula 3 (vitamin B12:stevia at 1:125 w/w) were analyzed.

Caco-2 cell monolayer = test: Absorption assessment in Caco-2 cell monolayer (A->B permeability)
Source text: (§1) A Caco-2 cellular model was used to study the effect of the stevia solubilizer on the intestinal absorption of vitamin B12. The Caco-2 cell monolayer model is the pharmaceutical industry standard for predicting human oral absorption. The test samples included:

[3] = as above; settings: human, Caco-2, Mean A->B Papp, assay duration 2 hr; controls 10 μM, formulations analyte test conc. 20 μg/mL
Source text: as §1

Compound	Stability of vitamin B12 in gastric fluid ([1]; over a two hour period, 20 μg/ml)	R.E. (relative error) 2 hr ([1]; simulated gastric fluid, 2 hr) [%]	Determined Concentration 2 hr ([1]; simulated gastric fluid, 2 hr, 0 hr 20.2 μg/mL) [µg/mL]	Time during which vitamin B12 in plasma was detected [2] [min]	Tmax (the time at which Cmax is reached) [2] [h]	Permeability across Caco-2 cell monolayer (Caco-2 cell monolayer)	Mean A->B Papp (Caco-2 cell monolayer; assay duration 2 hr, controls 10 μM, formulations analyte test conc. 20 μg/mL)	Papp A→B at 2 h, 10 μM [3] [×10⁻⁶ cm/s]
C/C1=C2/[N-][C@H]([C@H](CC(N)=O)[C@@]2(C)CCC(=O)NC[C@@H](C)OP(=O)([O-])O[C@H]2[C@@H](O)[C@@H](n3cnc4cc(C)c(C)cc43)O[C@@H]2CO)[C@]2(C)N=C(/C(C)=C3N=C(/C=C4N=C1[C@@H](CCC(N)=O)C\4(C)C)[C@@H](CCC(N)=O)[C@]\3(C)CC(N)=O)[C@@H](CCC(N)=O)[C@]2(C)CC(N)=O.[CH3-].[Co+3] [Formula F4, methylcobalamin]	stable	3.7	21.0	480	1.5	not permeable	<LLOQ^c	
CNC(=C[N+](=O)[O-])NCCSCc1ccc(CN(C)C)o1 [Ranitidine]								0.3
